Holding throughout (assay type): biochemical
Experiment [1] concerns the target human lysosomal acid-α-glucosidase (Homo sapiens, UniProt P10253). As to the kind of experiment: α-glucosidase inhibition assay. The settings on record: for IC50: mean ± standard error, triplicates. As for the experimental part:
(§1) The inhibitory potential of the synthesized analogs against human pancreatic α-amylase and human lysosomal acid-α-glucosidase enzymes was carried out using the same protocol as described previously with slight modification. […] The percent of inhibition for both enzymes was calculated via the following formula: % inhibition=Abs(blank)−Abs(test compoud)/Abs (blank)×100
(§2) The results were expressed as IC50 (μM), and all the experiments were carried out in triplicates.

Experiment [2] deals with T1, human pancreatic α-amylase (Homo sapiens, UniProt P04746).
T1 sequence (P04746 16-511): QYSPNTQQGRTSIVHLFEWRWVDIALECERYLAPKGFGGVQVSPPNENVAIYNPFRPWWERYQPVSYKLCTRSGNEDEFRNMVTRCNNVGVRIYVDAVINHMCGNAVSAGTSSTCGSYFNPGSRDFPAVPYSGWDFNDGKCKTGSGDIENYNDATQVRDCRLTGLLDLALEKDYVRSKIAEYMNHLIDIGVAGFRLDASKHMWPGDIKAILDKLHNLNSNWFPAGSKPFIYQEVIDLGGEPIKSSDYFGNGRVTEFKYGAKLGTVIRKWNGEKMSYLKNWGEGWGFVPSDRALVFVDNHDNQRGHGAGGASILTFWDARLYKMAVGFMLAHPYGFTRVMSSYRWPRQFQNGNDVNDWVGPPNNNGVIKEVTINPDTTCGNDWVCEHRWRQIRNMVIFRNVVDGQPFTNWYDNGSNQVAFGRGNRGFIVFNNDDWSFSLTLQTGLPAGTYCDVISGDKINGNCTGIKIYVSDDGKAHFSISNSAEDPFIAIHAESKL
The experiment can be described thus: α-amylase inhibition assay. To be noted: for IC50: mean ± standard error, triplicates. As for the experimental part: as §1, §2

In the next experiment the target is α-glucosidase (Homo sapiens, UniProt P10253). The experiment can be described thus: enzyme kinetic study, mode of α-glucosidase inhibition (Lineweaver–Burk). As for the experimental part: (§3) The kinetic studies were carried out based on the above IC50 values. […] A volume of 20 μL was incubated for 15 min at 30 °C using varying concentrations of the inhibitor 5d against α-amylase (0, 5, 25, and 35 μM) and α-glucosidase ([…]) with varying concentrations of inhibitor substrate (starch) in the range 0.3 to 8 mM, whereas concentrations for the inhibitor substrate (p-nitrophenyl-α-D-glucopyranoside, PNPg) were in the range 0.1–1.3 mM, respectively. This was conducted according to the same protocol as previously described, with slight modifications. The type of enzyme inhibition was assessed by preparing Lineweaver–Burk plots of the inverse of the velocities (1/V) versus the inverse of the substrate’s concentration 1/[S] mM^−1, and the change in absorbance was measured spectrophotometrically at 405 nm. The constant of inhibition, Ki, was determined through the secondary plot of the slope versus the inhibitor concentration.

The target of a further experiment is T2, α-amylase (Homo sapiens, UniProt P04746).
T2 sequence (P04746 16-511): T1 sequence (P04746 16-511)
The experiment can be described thus: enzyme kinetic study, mode of α-amylase inhibition (Lineweaver–Burk). Here is the method:
as §3

[3] abbreviates: ratio of IC50 values vs acarbose.

Each structure is given as a SMILES string. Several values for one entry are separate records, joined by “and”; a condition that tells them apart may be missing. Equal entries are not always repeated.

The values that follow come from paper PMC10818600, “In Silico Design, Synthesis, and Evaluation of Novel Enantiopure Isoxazolidines as Promising Dual Inhibitors of α-Amylase and α-Glucosidase” (Molecules, 2024).

By IC50 is commonly meant the concentration at which inhibition is half-maximal. Read a low IC50 as greater potency. For `COc1cc(C[C@@H]2C[C@@H]3C(=O)N(C)C4(C[C@H](C)CC[C@H]4C(C)C)N3O2)ccc1OCC(=O)NNC(=O)Nc1ccc(Br)cc1` (stereo partly drawn) [5f, N-(4-bromophenyl)-2-(2-(4-(((2S,2′R, 3a’R, 5R)-2-isopropyl-5,5′-dimethyl-4′-oxotetrahydro-2′H-spiro[cyclohexane-1,6′-imidazo[1,5-b]isoxazol]-2′-yl)methyl)-2-methoxyphenoxy)acetyl)hydrazine-1-carboxamide], the values for the IC50 in experiment [1] and in experiment [2] were 204.6 ± 0.41 µM and 183.8 ± 0.498 µM, respectively.
On the same counts, the results for `Cc1cccc(C[C@@H]2C[C@@H]3C(=O)N(C)C4(C[C@H](C)CC[C@H]4C(C)C)N3O2)c1OCC(=O)NNC(=O)Nc1ccc(Cl)cc1` (stereo partly drawn) [5e, N-(4-chlorophenyl)-2-(2-(2-(((2S,2′R,3a’R,5R)-2-isopropyl-5,5′-dimethyl-4′-oxotetrahydro-2′H-spiro[cyclohexane-1,6′-imidazo[1,5-b]isoxazol]-2′-yl)methyl)-6-methylphenoxy)acetyl)hydrazine-1-carboxamide] are 258.7 ± 0.521 µM and 232.8 ± 0.517 µM.
For `Cc1cccc(C[C@@H]2C[C@@H]3C(=O)N(C)C4(C[C@H](C)CC[C@H]4C(C)C)N3O2)c1OCC(=O)NNC(=O)Nc1cccc(Cl)c1` (stereo partly drawn) [5c, N-(3-chlorophenyl)-2-(2-(2-(((2S,2′R,3a’R,5R)-2-isopropyl-5,5′-dimethyl-4′-oxotetrahydro-2′H-spiro[cyclohexane-1,6′-imidazo[1,5-b]isoxazol]-2′-yl)methyl)-6-methylphenoxy)acetyl)hydrazine-1-carboxamide], the IC50 was determined as 120.9 ± 0.333 µM in experiment [1] and 92.28 ± 0.276 µM in experiment [2].
On the same counts, the results for `Cc1cccc(C[C@@H]2C[C@@H]3C(=O)N(C)C4(C[C@H](C)CC[C@H]4C(C)C)N3O2)c1OCC(=O)NNC(=O)Nc1ccc(F)cc1` (stereo partly drawn) [5a, N-(4-fluorophenyl)-2-(2-(2-(((2S,2′R,3a’R,5R)-2-isopropyl-5,5′-dimethyl-4′-oxotetrahydro-2′H-spiro[cyclohexane-1,6′-imidazo[1,5-b]isoxazol]-2′-yl)methyl)-6-methylphenoxy)acetyl)hydrazine-1-carboxamide] are 152.3 ± 0.367 µM and 120.3 ± 0.306 µM.
As a reminder, the Ki is the dissociation constant of the complex between target and ligand, obtained from inhibition or displacement. On to `Cc1cccc(C[C@@H]2C[C@@H]3C(=O)N(C)C4(C[C@H](C)CC[C@H]4C(C)C)N3O2)c1OCC(=O)NNC(=O)Nc1cccc2ccccc12` (stereo partly drawn) [5d, 2-(2-(2-(((2S,2′R,3a’R,5R)-2-isopropyl-5,5′-dimethyl-4′-oxotetrahydro-2′H-spiro[cyclohexane-1,6′-imidazo[1,5-b]isoxazol]-2′-yl)methyl)-6-methylphenoxy)acetyl)-N-(naphthalen-1-yl)hydrazine-1-carboxamide], for which the IC50 in experiment [1] stood at 94.33 ± 0.282 µM; in experiment [2] it was 53.03 ± 0.106 µM. Moreover, the “α-glucosidase inhibitory activity, fold higher than that of acarbose” value in experiment [1] (setting [3]) was 8.3 fold and 8.27 fold. The “α-amylase inhibitory activity, fold higher than that of acarbose” value in experiment [2] (setting [3]) is 5.6 fold and 5.59 fold. The “mode of α-glucosidase inhibition” value at α-glucosidase (Lineweaver–Burk plot: Km increases, Vmax constant) is “competitive”. Moreover, the Ki at α-glucosidase (estimated from slope vs inhibitor concentration, substrate PNPg, read-out: inhibition constant Ki, α-glucosidase) is 89.5 µM; at α-amylase (estimated from secondary re-plot of Lineweaver–Burk plots, substrate starch, read-out: inhibition constant Ki, α-amylase) it was 31.9 µM. Also, on α-amylase (Lineweaver–Burk plot: Vmax unchanged, Km increased), the “mode of α-amylase inhibition” value is “competitive”.
Regarding `Cc1cccc(C[C@@H]2C[C@@H]3C(=O)N(C)C4(C[C@H](C)CC[C@H]4C(C)C)N3O2)c1OCC(=O)NNC(=O)Nc1ccc(Cl)c(C(F)(F)F)c1` (stereo partly drawn) [5b, N-(3-trifluoromethyl-4-chlorophenyl)-2-(2-(2-(((2S,2′R,3a’R,5R)-2-isopropyl-5,5′-dimethyl-4′-oxotetrahydro-2′H-spiro[cyclohexane-1,6′-imidazo[1,5-b]isoxazol]-2′-yl)methyl)-6-methylphenoxy)acetyl)hydrazine-1-carboxamide], the IC50 was 118.9 ± 0.325 µM in experiment [1] and 67.4 ± 0.202 µM in experiment [2].
On the same counts, the results for `COc1cc(C[C@@H]2C[C@@H]3C(=O)N(C)C4(C[C@H](C)CC[C@H]4C(C)C)N3O2)ccc1OCC(=O)NNC(=O)Nc1ccc(F)cc1` (stereo partly drawn) [5g, N-(4-fluorophenyl)-2-(2-(4-(((2S,2′R,3a’R,5R)-2-isopropyl-5,5′-dimethyl-4′-oxotetrahydro-2′H-spiro [cyclohexane-1,6′-imidazo[1,5-b]isoxazol]-2′-yl)methyl)-2-methoxyphenoxy)acetyl)hydrazine-1-carboxamide] are 170.8 ± 0.358 µM and 134.8 ± 0.411 µM.
